Experimental findings from patent US11236069B2, “KIF18A inhibitors” (AMGEN INC., priority 2018, dated 2022) are described below.

Chain of Recombinant human KIF18A (1-467 His-tagged) protein (Q8NI77 1-467): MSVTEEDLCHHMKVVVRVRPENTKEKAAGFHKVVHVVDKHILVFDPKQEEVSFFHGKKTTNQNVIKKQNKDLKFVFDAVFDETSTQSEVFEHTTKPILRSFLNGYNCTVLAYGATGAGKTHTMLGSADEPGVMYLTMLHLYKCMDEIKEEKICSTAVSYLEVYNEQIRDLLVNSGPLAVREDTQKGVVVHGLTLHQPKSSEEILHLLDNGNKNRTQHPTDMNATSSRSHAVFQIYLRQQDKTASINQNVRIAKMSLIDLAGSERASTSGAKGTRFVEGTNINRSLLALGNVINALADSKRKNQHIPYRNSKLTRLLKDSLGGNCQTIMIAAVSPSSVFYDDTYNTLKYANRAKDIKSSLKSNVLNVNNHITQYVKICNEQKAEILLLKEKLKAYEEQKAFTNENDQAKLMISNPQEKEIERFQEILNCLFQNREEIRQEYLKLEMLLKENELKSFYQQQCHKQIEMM
Chain of Recombinant human KIF18A (1-467 His-tagged) protein (P02550 whole entry partner): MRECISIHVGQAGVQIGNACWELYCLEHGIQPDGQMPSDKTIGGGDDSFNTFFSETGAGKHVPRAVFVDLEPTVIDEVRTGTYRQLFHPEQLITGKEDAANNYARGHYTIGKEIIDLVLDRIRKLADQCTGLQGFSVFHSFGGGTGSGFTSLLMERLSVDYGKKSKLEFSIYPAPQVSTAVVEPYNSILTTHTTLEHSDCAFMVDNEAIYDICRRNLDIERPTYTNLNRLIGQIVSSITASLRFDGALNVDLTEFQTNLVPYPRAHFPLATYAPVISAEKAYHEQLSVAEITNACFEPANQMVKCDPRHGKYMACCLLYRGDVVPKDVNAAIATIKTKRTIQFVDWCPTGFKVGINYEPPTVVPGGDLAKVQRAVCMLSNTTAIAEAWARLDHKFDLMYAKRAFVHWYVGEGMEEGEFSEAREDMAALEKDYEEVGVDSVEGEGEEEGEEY
Chain of Recombinant human KIF18A (1-467 His-tagged) protein (P02554 whole entry partner): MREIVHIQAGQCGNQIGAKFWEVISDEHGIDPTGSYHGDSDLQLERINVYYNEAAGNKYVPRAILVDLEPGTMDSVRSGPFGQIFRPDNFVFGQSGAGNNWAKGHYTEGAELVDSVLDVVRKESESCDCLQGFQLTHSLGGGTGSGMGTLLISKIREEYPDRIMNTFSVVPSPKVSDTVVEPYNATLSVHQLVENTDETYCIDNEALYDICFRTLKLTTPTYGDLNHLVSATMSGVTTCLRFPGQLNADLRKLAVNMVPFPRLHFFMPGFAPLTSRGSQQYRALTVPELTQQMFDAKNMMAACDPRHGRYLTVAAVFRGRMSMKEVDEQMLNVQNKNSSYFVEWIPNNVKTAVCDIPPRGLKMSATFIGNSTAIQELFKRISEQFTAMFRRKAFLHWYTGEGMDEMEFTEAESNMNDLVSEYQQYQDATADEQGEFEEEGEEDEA

The assay has as its target Recombinant human KIF18A (1-467 His-tagged) protein (Homo sapiens (Human), UniProt Q8NI77). Put plainly: KIF18A Enzyme Assay: microtubule-stimulated ATPase activity (ADP-Glo). Conditions: read-out: KIF18A ATPase IC50; 30 nM KIF18A, 30 μg/mL pig microtubules, ATP at Km 75 μM, ADP-Glo luminescence. For orientation: In ADP-Glo the light output rises with the ADP produced.
Text: KIF18A Enzyme Assay: Microtubule-stimulated ATPase activity assay is used to measure KIF18A enzyme activity after treatment with compound. Compounds were 2-fold serially diluted in DMSO (Sigma Inc) over 22-point concentration range. […] The assay measures ADP formed from the ATPase reaction.
For `Cc1cc(NC(=O)c2ccc(S(=O)(=O)NCCO)cc2N2CCC3(CC2)CC3)nc(OCCC(F)(F)F)n1` [Example 17-2, 4-(N-(2-Hydroxyethyl)sulfamoyl)-N-(6-methyl-2-(3,3,3-trifluoropropoxy)pyrimidin-4-yl)-2-(6-azaspiro[2.5]octan-6-yl)benzamide], the IC50 was determined as 42 nM.
The result for `Cc1cc(NC(=O)c2ccc(S(=O)(=O)NCCO)cc2N2CCC3(CC2)CC3)nc(N2CCC(F)(F)CC2)n1` [Example 17-3, N-(2-(4,4-Difluoropiperidin-1-yl)-6-methylpyrimidin-4-yl)-4-(N-(2-hydroxyethyl)sulfamoyl)-2-(6-azaspiro[2.5]octan-6-yl)benzamide] reads 63 nM; that for `O=C(Nc1ccnc(N2CCC(F)(F)CC2)n1)c1ccc(S(=O)(=O)NCCO)cc1N1CCC2(CC1)CC2` [Example 17-4, N-(2-(4,4-Difluoropiperidin-1-yl)pyrimidin-4-yl)-4-(N-(2-hydroxyethyl)sulfamoyl)-2-(6-azaspiro[2.5]octan-6-yl)benzamide], 23 nM; that for `Cc1cc(NC(=O)c2ccc(S(=O)(=O)NCCO)cc2N2CCC3(CC2)CC3)nc(N2CC(F)(F)C2)n1` [Example 17-5, N-(2-(3,3-Difluoroazetidin-1-yl)-6-methylpyrimidin-4-yl)-4-(N-(2-hydroxyethyl)sulfamoyl)-2-(6-azaspiro[2.5]octan-6-yl)benzamide], 133 nM.
The value for `Cc1cc(NC(=O)c2ccc(S(=O)(=O)N[C@H](C)CO)cc2N2CCC3(CC2)CC3)nc(N2CCC(F)(F)CC2)n1` [Example 17-6, (R)-N-(2-(4,4-Difluoropiperidin-1-yl)-6-methylpyrimidin-4-yl)-4-(N-(1-hydroxypropan-2-yl)sulfamoyl)-2-(6-azaspiro[2.5]octan-6-yl)benzamide] was 127 nM; that for `Cc1cc(NC(=O)c2ccc(S(=O)(=O)N[C@@H](C)CO)cc2N2CCC3(CC2)CC3)nc(N2CCC(F)(F)CC2)n1` [Example 17-7, (S)-N-(2-(4,4-Difluoropiperidin-1-yl)-6-methylpyrimidin-4-yl)-4-(N-(1-hydroxypropan-2-yl)sulfamoyl)-2-(6-azaspiro[2.5]octan-6-yl)benzamide] was 147 nM; that for `Cc1cc(NC(=O)c2ccc(S(=O)(=O)NCC(C)(C)O)cc2N2CCC3(CC2)CC3)nc(N2CCC(F)(F)CC2)n1` [Example 17-8, N-(2-(4,4-Difluoropiperidin-1-yl)-6-methylpyrimidin-4-yl)-4-(N-(2-hydroxy-2-methylpropyl)sulfamoyl)-2-(6-azaspiro[2.5]octan-6-yl)benzamide] was 286 nM.
As to `Cc1cc(NC(=O)c2ccc(S(=N)(=O)C3COC3)cc2N2CCC3(CC2)CC3)nc(N2CCC(F)(F)CC2)n1` (centres unmarked) [Example 19-1, N-(2-(4,4-Difluoropiperidin-1-yl)-6-methylpyrimidin-4-yl)-4-(oxetane-3-sulfonimidoyl)-2-(6-azaspiro[2.5]octan-6-yl)benzamide], the IC50 is 163 nM.
The value for `Cc1cc(NC(=O)c2ccc(S(C)(=N)=O)cc2N2CCC3(CC2)CC3)nc(N2CCC(F)(F)CC2)n1` (centres unmarked) [Example 19-2, N-(2-(4,4-Difluoropiperidin-1-yl)-6-methylpyrimidin-4-yl)-4-(methylsulfonimidoyl)-2-(6-azaspiro[2.5]octan-6-yl)benzamide] was 438 nM.
The result for `CC[S@@](=N)(=O)c1ccc(C(=O)Nc2cc(C)nc(N3CCC(F)(F)CC3)n2)c(N2CCC3(CC2)CC3)c1` [Example 19-3, 2-(6-Azaspiro[2.5]octan-6-yl)-N-(2-(4,4-difluoro-1-pieridinyl)-6-methyl-4-pyrimidinyl)-4-(S-ethylsulfonimidoyl)benzamide] reads 78 nM; that for `Cc1cc(NC(=O)c2ccc(S(=N)(=O)C(C)C)cc2N2CCC3(CC2)CC3)nc(N2CCC(F)(F)CC2)n1` (centres unmarked) [Example 19-5, N-(2-(4,4-Difluoropiperidin-1-yl)-6-methylpyrimidin-4-yl)-4-(propan-2-ylsulfonimidoyl)-2-(6-azaspiro[2.5]octan-6-yl)benzamide], 175 nM.
The value for `N=S(=O)(c1ccc(C(=O)Nc2ccnc(N3CCC(F)(F)CC3)c2)c(N2CCC3(CC2)CC3)c1)C1CC1` (centres unmarked) [Example 19-6, 4-(Cyclopropanesulfonimidoyl)-N-(2-(4,4-difluoropiperidin-1-yl)pyridin-4-yl)-2-(6-azaspiro[2.5]octan-6-yl)benzamide] was 42 nM.
Take `Cc1cc(NC(=O)c2ccc([S@](=N)(=O)C3CC3)cc2N2CCC3(CC2)CC3)nc(N2CCO[C@H](C)C2)n1` [Example 19-7, 2-(6-Azaspiro[2.5]octan-6-yl)-4-(S-cyclopropylsulfonimidoyl)-N-(6-methy-2-((2R)-2-methyl-4-moprpholinyl)-4-pyrimidinyl)benzamide]: the IC50 was found to be 195 nM.
The value for `Cc1cc(NC(=O)c2ccc([S@@](=N)(=O)C3CC3)cc2N2CCC3(CC2)CC3)nc(N2CCO[C@H](C)C2)n1` [Example 19-8, 2-(6-Azaspiro[2.5]octan-6-yl)-4-(R-cyclopropylsulfonimidoyl)-N-(6-methy-2-((2R)-2-methyl-4-moprpholinyl)-4-pyrimidinyl)benzamide] was 78 nM; that for `Cc1cc(NC(=O)c2ccc(S(=N)(=O)C3CC3)cc2N2CCC3(CC2)CC3)nc(N2CC(F)(F)C2)n1` (centres unmarked) [Example 19-9, 4-(Cyclopropanesulfonimidoyl)-N-(2-(3,3-difluoroazetidin-1-yl)-6-methylpyrimidin-4-yl)-2-(6-azaspiro[2.5]octan-6-yl)benzamide] was 69 nM.
The value for `Cc1cc(NC(=O)c2ccc(S(=O)(=O)C3CNC3)cc2N2CCC3(CC2)CC3)nc(N2CCC(F)(F)CC2)n1` [Example 21, 4-(Azetidin-3-ylsulfonyl)-N-(2-(4,4-difluoropiperidin-1-yl)-6-methylpyrimidin-4-yl)-2-(6-azaspiro[2.5]octan-6-yl)benzamide] was 40 nM; that for `Cc1cc(NC(=O)c2ccc(S(=O)(=O)C3CN(C)C3)cc2N2CCC3(CC2)CC3)nc(N2CCC(F)(F)CC2)n1` [Example 22, N-(2-(4,4-Difluoropiperidin-1-yl)-6-methylpyrimidin-4-yl)-4-((1-methylazetidin-3-yl)sulfonyl)-2-(6-azaspiro[2.5]octan-6-yl)benzamide] was 406 nM.

One may read the IC50 as the concentration that gives 50% inhibition.
